Experimental data as given in patent publication US20250101004A1, “NOVEL KALIRIN INHIBITORS FOR REGULATION OF SYNAPTIC PLASTICITY AND NEUROPATHIC PAIN TREATMENT” (Northwestern University, priority 2022, published 2025).
Like-named read-outs stand apart in the source and are kept apart here.

Experiments:
[1] = test system: HEK293T cells; conditions: 24 hours, Cell-titre Glo
Description: Cell viability was assessed by cell-titre glo assay. […] Indicated values indicate the required concentration to reduce viability by 50%.
Compound was incubated with heterologous cells (HEK293T) for 24 hours, and cell death was measured using the Cell-titre Glo assay.

[2] = biological target: T1, kalirin (Homo sapiens, UniProt O60229); test: Miniaturized high-throughput GEF assay with bodipy-GDP loaded RAC1; assay type: biochemical
T1 construct: intrinsic activity of RAC1 in the absence of kalirin's GEF domain (No GEF)
Description: FIG. 11 illustrates that reaction rates from FIG. 10 were assessed and plotted against concentration.
This was assessed using a miniaturized high-throughput GEF assay, utilizing fluorescently labelled GDP (bodipy-GDP) loaded RAC1.

[3] = biological target: T2, kalirin GEF domain (Homo sapiens, UniProt O60229); test: Fluorescence thermal shift (FTS) binding to kalirin GEF domain
[4] = test system: primary cultured rat neurons; test: Multi-electrode array (MEA) analysis of electrical activity of primary cultured neurons; assay type: cell-based
Description: FIG. 16A-16F show multi-electrode array analyses of the electrical activity of primary cultured neurons was assessed in the presence of compound B04, alongside the known RAC1 inhibitor NSC23776. […] Dose response analysis confirmed activity of B04 (123 μM, FIG. 16D and FIG. +16F). However, NSC23766 (FIG. 16C and FIG. 16E) had 10× efficacy (7.4 μM) compared to previous results.
Indicated PP01 analogues were incubated with rat primary cultured cortical neurons at 50 μM to assess the ability to recapitulate PP01s ability to inhibit neuronal activity.
48 well multi-electrode arrays (MEAs) were seeded with 50,000 primary cultured rat neurons and grown to 3WIV. Cells were incubated with NSC23766 or B04 at 50 and 100 μM for 4 hours alongside vehicle control (1% DMSO, FIG. 16A-16B). Neuronal activity was assessed in terms of weighted mean firing rate (number of events per second across active electrodes) and burst frequency (>5 events in 100 ms within a single electrode) and network burst frequency (FIG. 16A-16D).
DRC curve analyses of NS23766 (FIGS. 16C and 16E) and B04 (FIGS. 16D and 16F) was performed to assess compound efficacy. […] This is likely due to reported off-target inhibition of NMDAr (Hou et al 2014).
Plate was treated with vehicle control or B04 for 4 hours. The % change from baseline was recorded. […] Drug resistance from overexpression is a known phenomenon, supporting target engagement (Palmer et al, 2014).

[5] = biological target: T2, kalirin GEF domain; test: Cellular GEF assay (RAC-Glisa) in cells transfected with kalirin-GEF domain; assay type: cell-based; design: Cells were transfected with the kalirin-GEF domain; expressed in transfected cells; host or cells: HEK293T (inferred from the same paragraph's toxicity test; the sentence on transfection says only 'Cells')
From the text: Known compound, NSC23766 (FIGS. 14A and 14C), was run alongside B04 (FIGS. 14B and 14D) to confirm GEF inhibition (IC50 of NSC23766 matches published results).

`Cc1cc2cc(Nc3ccnc(Nc4ccc5[nH]c(C)cc5c4)n3)ccc2[nH]1` [AZA1] was tested, and the “cellular toxicity / tolerability” value [1] was “Only NSC23766 and B04 were well tolerated”, the “inhibition of kalirin biochemical GEF activity” value [2] was “inhibited GEF activity” and the “binding to kalirin by FTS (thermodynamic stability of kalirin GEF domain)” value (“binding to kalirin by FTS” for short) [3] was “not bind to kalirin”.

In the case of `CCN(CC)CCCC(C)Nc1nc(C)cc(Nc2ccc3nc(C)cc(N)c3c2)n1` (stereo not shown) [NSC23766], the “cellular toxicity / tolerability” value [1] is reported as “well tolerated”, the “inhibition of kalirin biochemical GEF activity” value [2] is reported as “inhibited GEF activity” and the “binding to kalirin by FTS” value [3] is reported as “not bind to kalirin”. For the same molecule, the burst frequency ([4]; 4 hours, 50 and 100 μM) was “reduced”, the “firing rate (weighted mean firing rate)” value ([4]; 4 hours, 50 and 100 μM) was “reduced” and the “inhibitory efficacy in neurons compared to published reports and cellular activity” value ([4]; fold greater) was 10 ×. For the same molecule, the IC50 ([4]; primary cultured neurons, 4 hours treatment, FIG. 16C-16F, read-out: dose response activity on neuronal electrical activity) was 7.4 µM and the “inhibition of kalirin activity (RAC1 activation)” value [5] was “inhibit kalirin activity”.

In the case of `O=C1C=CC(=O)N1c1cccc([N+](=O)[O-])c1` [NPPD], the “cellular toxicity / tolerability” value [1] is reported as “Only NSC23766 and B04 were well tolerated”, the “inhibition of kalirin biochemical GEF activity” value [2] is reported as “inhibited GEF activity” and the “binding to kalirin by FTS” value [3] is reported as “not bind to kalirin”.

With `CC(C)c1cn2c(NC(=O)Cc3c[nH]c4ccccc34)cccc2n1` [NW12, 2-(1H-indol-3-yl)-N-[2-(propan-2-yl)-1H-imidazo[1,2-a]pyridine-5-yl]acetamide] the “cellular toxicity / tolerability” value [1] was “suitable for in vitro cellular studies”, the IC50 ([4]; PP01 analogues, FIG. 31A-31C, read-out: IC50, inhibition of neuronal activity) was < 5 µM and the “inhibition of neuronal activity” value ([4]; rat primary cultured cortical neurons, 50 μM, 4 and 24 hours) was “inhibited activity robustly”.

`O=C1C=C2C(=CCOC2O)O1` (stereo not shown) [patulin] was tested, and the “inhibition of kalirin biochemical GEF activity” value [2] was “inhibited GEF activity” and the “binding to kalirin by FTS” value [3] was “bond to kalirin”.
